Consider 16 molecules from patent publication US11591325B2, “2-polysubstituted aromatic ring-pyrimidine derivatives, preparation and medical application thereof” (ZHEJIANG UNIVERSITY, priority 2016, dated 2023).

What is called IC50 is the concentration that inhibits the measured activity by half.

Where two headings read alike, the source gives them in different places.

Assay [1] addresses T1, Chk1 protein kinase (Homo sapiens, UniProt O14757).
T1 sequence (O14757 1-476): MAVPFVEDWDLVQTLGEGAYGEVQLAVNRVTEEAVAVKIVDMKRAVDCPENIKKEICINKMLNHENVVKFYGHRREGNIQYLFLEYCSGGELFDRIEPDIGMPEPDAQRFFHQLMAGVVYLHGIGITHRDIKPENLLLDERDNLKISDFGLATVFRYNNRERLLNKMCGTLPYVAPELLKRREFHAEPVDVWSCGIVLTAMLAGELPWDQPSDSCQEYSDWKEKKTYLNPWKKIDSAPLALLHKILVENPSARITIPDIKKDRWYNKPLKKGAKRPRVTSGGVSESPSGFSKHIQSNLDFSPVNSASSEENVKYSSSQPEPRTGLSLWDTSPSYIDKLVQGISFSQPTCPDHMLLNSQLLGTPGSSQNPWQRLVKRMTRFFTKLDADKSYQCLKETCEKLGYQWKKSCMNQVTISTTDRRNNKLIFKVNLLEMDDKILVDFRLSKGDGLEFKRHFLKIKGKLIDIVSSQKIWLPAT
As to the kind of experiment: Chk1 enzyme inhibitory activity, ADP-Glo kit. It is filed as biochemical. The procedure: With the Saurosporine as a positive control, the Chk1 enzyme inhibitory activity (IC50) was evaluated using the ADP-Glo kit. […] The phosphorylation process consumes ATP. After the reaction, ADP-Glo™ Reagent consumes the remaining ATP. The ADP produced during the reaction can be transformed by ADP-Glo Detection Reagent. For ATP, ATP acts as a substrate for the Ultra-Glo™ luciferase catalytic reaction, producing an optical signal. The test compound was dissolved in DMSO to make a 10 mM stock solution and diluted to 12 different concentrations in a certain ratio for testing. […] Incubate for 1 h, stop the reaction by adding 5 μL of ADP-Glo™ Reagent, and incubate for 1 h at 37° C. 10 μL of ADP-Glo Detection Reagent was added, incubated at 37° C. for 30 min, and three parallel wells were set for each sample. […] was measured by luminescence fluorescence microplate reader, and data were calculated using GraphPad Prism 5 software to calculate IC50 values.
A general note: ADP-Glo turns the ADP formed in a reaction into a luminescent signal.

Assay [2] deals with human multiple myeloma cells RPMI 8226. The assay is described as follows: MTS in vitro proliferation assay, RPMI 8226. It is filed as cell-based. As to conditions: 72 hours, read-out: IC50(μM) RPMI8226.
Procedure: (§1) The cells in the logarithmic growth phase were trypsinized, counted, and seeded at a density of 1×10^4 cells/well in a 96-well plate at 100 μL per well in a 37° C. incubator containing 5% CO2 overnight. For the culture, six concentration gradients were set for each compound, and three sets of duplicate wells were set for each concentration. After the addition, the cells were cultured for 72 hours, and 20 μL of MTS was added. After incubating for 2 hours at 37° C., the absorbance at 490 nm (L1) was measured with a SpectraMAX 340 microplate reader.
Assay [3] deals with human mantle cell lymphoma cells Mino. The assay is described as follows: MTS in vitro proliferation assay, Mino. It is filed as cell-based. As to conditions: 72 hours.
Procedure: as §1
Assay [4] deals with human lymphoma cells Romas. The assay is described as follows: MTS in vitro proliferation assay, Romas. It is filed as cell-based. As to conditions: 72 hours.
Procedure: as §1
For assay [5], the system named is human mantle cell lymphoma cells Jeko-1. The assay is described as follows: MTS in vitro proliferation assay, Jeko-1. It is filed as cell-based. As to conditions: 72 hours.
Procedure: as §1
Assay [6] has as its system human acute monocytic leukemia cells MV-4-11. The assay is described as follows: MTS in vitro proliferation assay, MV-4-11. It is filed as cell-based. As to conditions: MV4-11, 72 hours.
Procedure: as §1
Assay [7] relates to Human lung cancer cell A549. The assay is described as follows: MTS in vitro proliferation assay, A549. It is filed as cell-based. To be noted: 72 hours, average of three experiments.
Procedure: as §1
For assay [8], the system named is human prostate cancer cell LnCAP. The assay is described as follows: MTS in vitro proliferation assay, LnCAP. It is filed as cell-based. To be noted: 72 hours, average of three experiments.
Procedure: as §1
The subject of assay [9] is human gastric cancer cell BGC-823. The assay is described as follows: MTS in vitro proliferation assay, BGC-823. It is filed as cell-based. As to conditions: 72 hours, average of three experiments.
Procedure: as §1
Assay [10] concerns human colon cancer cell HCT116. As to the kind of experiment: MTS in vitro proliferation assay, HCT116. It is filed as cell-based. As to conditions: HCT-116, 72 hours, average of three experiments.
Procedure: as §1
In assay [11] the test system is human ovarian cancer cell OVCAR-8. The assay is described as follows: MTS in vitro proliferation assay, OVCAR-8. As to conditions: 72 hours, average of three experiments. It is filed as cell-based.
Procedure: as §1
Assay [12] concerns human colon cancer cell Colo205. The assay is described as follows: MTS in vitro proliferation assay, Colo205. It is filed as cell-based. To be noted: COLO 205, 72 hours, average of three experiments.
Procedure: as §1
Assay [13] has as its system human breast cancer cells MCF-7. As to the kind of experiment: cells. As to conditions: MCF7, 72 h, read-out: IC50(μM) MCF-7.
Procedure: as §1
The mark [14] stands for this setting: Table 2 >10 μM or <1 μM, read-out: Chk1 IC50, bound with unit.
[15] abbreviates: Table 2 left column pair, numeric cells, read-out: Chk1 (IC50).

As to `CNc1nc(Nc2cc(OC3CCNCC3)n(C)n2)ncc1-c1cnn(C)c1` [Compound 1, N^4-methyl-5-(1-methyl-1H-pyrazol-4-yl)-N^2-(1-methyl-5-(piperidin-4-yloxy)pyrazol-3-yl)-2,4-diaminopyrimidine], in [1] (setting [14]), the IC50 is above 10000 nM.

In the case of `CNc1nc(Nc2cc(OC3CCNCC3)no2)ncc1-c1cnn(C)c1` [Compound 2, N^4-Methyl-5-(1-methyl-1H-pyrazol-4-yl)-N^2-(3-(piperidin-4-yloxy)isoxazol-5-yl)-2,4-diaminopyrimidine], in assay [1] (setting [14]), the IC50 is above 10000 nM.

Turning to `CNc1nc(Nc2cn(C)c(OC3CCNCC3)n2)ncc1-c1cnn(C)c1` [Compound 3, N^4-Methyl-5-(1-methyl-1H-pyrazol-4-yl)-N^2-(1-methyl-2-(piperidin-4-yloxy)imidazol-4-yl)-2,4-diaminopyrimidine], the IC50 in assay [1] (setting [14]) is above 10000 nM.

For `CNc1nc(Nc2cc(OC3CCNCC3)ns2)ncc1-c1cnn(C)c1` [Compound 4, N^4-Methyl-5-(1-methyl-1H-pyrazol-4-yl)-N^2-(2-(piperidin-4-yloxy)isothiazol-5-yl)-2,4-diaminopyrimidine], the IC50 in assay [1] (setting [14]) was above 10000 nM.

For the molecule `CNc1nc(NC2CN=C(OC3CCNCC3)O2)ncc1-c1cnn(C)c1` (stereo not shown) [Compound 5, N^4-Methyl-5-(1-methyl-1H-pyrazol-4-yl)-N^2-(2-(piperidin-4-yloxy)-4,5-2H-oxazolin-5-yl)-2,4-diaminopyrimidine], in [1] (setting [14]), the IC50 is above 10000 nM.

With `CNc1nc(Nc2cnc(OC3CCNCC3)s2)ncc1-c1cnn(C)c1` [Compound 6, N^4-Methyl-5-(1-methyl-1H-pyrazol-4-yl)-N^2-(2-(piperidin-4-yloxy)thiazol-5-yl)-2,4-diaminopyrimidine], the IC50 in assay [1] (setting [14]) is above 10000 nM.

With `COc1nc(Nc2cnc(C#N)c(OCC3CCNCC3)c2)ncc1-c1cccc(F)c1` [Compound 17, 4-methoxy-5-(3-fluorophenyl)-N-(2-cyano-3-(piperidin-4-methyl)oxypyridin-5-yl)-2-aminopyrimidine], the IC50 in assay [1] (setting [15]) amounted to 8.8 nM; in assay [2] it was 3.29 µM; in [3], 0.495 µM; in [4] it was 0.348 µM; in assay [5] it was 0.117 µM; in assay [6], 0.05 µM. For the same molecule, the IC50 in assay [7] is 4.24 µM; in assay [8] it was above 10 µM; in [9] it was above 10 µM; in [10], 1.9 µM; in assay [11], 0.22 µM; in [12], 0.878 µM.

For `COc1nc(Nc2cnc(C#N)c(OCC3CCNCC3)c2)ncc1-c1cnn(C)c1` [Compound 18, 4-methoxy-5-(1-methyl-1H-pyrazol-4-yl)-N-(2-cyano-3-(piperidin-4-methyl)oxypyridin-5-yl)-2-aminopyrimidine], the 50% inhibitory concentration (IC50) in [1] (setting [15]) is 1.8 nM; in assay [6], 0.036 µM; in assay [7] it was 3.17 µM; in [8], 7 µM; in assay [9], 7.11 µM; in assay [10], 1.77 µM. Also, the IC50 in assay [11] was found to be 2.14 µM; in assay [12], 1.01 µM.

As for `CNc1nc(Nc2cnc(C#N)c(OC3CCCNC3)c2)ncc1-c1cnn(C)c1` (stereo not shown) [Compound 32, N^4-Methyl-5-(1-methyl-1H-pyrazol-4-yl)-N^2-(2-cyano-3-(piperidin-3-yloxy)pyridin-5-yl)-2,4-diaminopyrimidine], the IC50 is 8.18 µM in [2]; 0.859 µM in assay [3]; 0.789 µM in [4]; 0.189 µM in [5]; 0.064 µM in assay [6]; 5.17 µM in assay [7]. In addition, the IC50 in assay [8] was found to be 6 µM; in assay [9], 7.64 µM; in assay [10], 4.18 µM.

For the molecule `CNc1nc(Nc2cnc(C#N)c(O[C@@H]3CCCNC3)c2)ncc1-c1cnn(C)c1` [Compound 35, (R)-N^4-methyl-5-(1-methyl-1H-pyrazol-4-yl)-N^2-(2-cyano-3-(piperidin-3-yloxy)pyridin-5-yl)-2,4-diaminopyrimidine], the half-inhibitory concentration (IC50) was 1.27 µM in assay [2]; 0.647 µM in assay [3]; 0.356 µM in [4]; 0.339 µM in assay [5]; 0.053 µM in assay [6]; 2.16 µM in [7]. Besides, the IC50 in assay [8] stood at 2.17 µM; in [9], 4.81 µM; in [10] it was 0.98 µM; in assay [11], 0.789 µM; in assay [12], 0.663 µM; in assay [13] it was 1.01 µM.

Consider `CNc1nc(Nc2cnc(C#N)c(O[C@H]3CCCNC3)c2)ncc1-c1cnn(C)c1` [Compound 36, (S)-N^4-methyl-5-(1-methyl-1H-pyrazol-4-yl)-N^2-(2-cyano-3-(piperidin-3-yloxy)pyridin-5-yl)-2,4-diaminopyrimidine], for which the IC50 in assay [2] amounted to 2.49 µM; in assay [3] it was 0.956 µM; in assay [4] it was 0.649 µM; in [5], 0.548 µM; in [6] it was 0.072 µM; in assay [7], 5.74 µM. The 50% inhibitory concentration (IC50) amounted to 4.89 µM in assay [8], 2.55 µM in assay [10], 4.18 µM in [11] and 2.18 µM in [12].

As to `CNc1nc(Nc2cnc(C#N)c(O[C@H](C)CN(C)C)c2)ncc1-c1cnn(C)c1` [Compound 41, (R)-N^4-methyl-5-(1-methyl-1H-pyrazol-4-yl)-N^2-(2-cyano-3-(1-dimethylaminopropyl-2-oxy)pyridin-5-yl)-2,4-diaminopyrimidine], the IC50 in assay [2] came to 0.945 µM; in [3], 0.473 µM; in [4], 0.119 µM; in assay [5], 0.094 µM; in assay [6], 0.034 µM; in assay [7], 2.17 µM. For the same molecule, the IC50 in assay [8] was determined as 2.62 µM; in assay [9] it was 5.17 µM; in [10] it was 1.31 µM; in [11], 1.19 µM; in assay [12], 0.993 µM; in assay [13], 1.01 µM.

For `CNc1nc(Nc2cnc(C#N)c(O[C@@H](C)CN(C)C)c2)ncc1-c1cnn(C)c1` [Compound 42, (S)-N^4-methyl-5-(1-methyl-1H-pyrazol-4-yl)-N^2-(2-cyano-3-(1-dimethylaminopropyl-2-oxy)pyridin-5-yl)-2,4-diaminopyrimidine], the 50% inhibitory concentration (IC50) in [2] is 0.814 µM; in assay [3], 0.227 µM; in assay [4], 0.218 µM; in assay [5], 0.137 µM; in [6], 0.092 µM; in assay [7], above 10 µM. The IC50 was determined as 5.74 µM in assay [8], 4.19 µM in assay [10], 2.17 µM in assay [11] and 1.03 µM in [12].

`N#Cc1ncc(Nc2ncc(C(F)(F)F)cn2)cc1OC1CCCNC1` (stereo not shown) [Compound 45, 5-trifluoromethyl-N-(2-cyano-3-(piperidin-3-oxy)pyridin-5-yl)-2-aminopyrimidine]: the IC50 in assay [1] (setting [14]) is below 1000 nM.

For `COc1nc(Nc2cnc(C#N)c(OCC3CCNCC3)c2)ncc1C(F)(F)F` [Compound 46, 4-methoxy-5-trifluoromethyl-N-(2-cyano-3-(piperidin-4-methyl)oxypyridin-5-yl)-2-aminopyrimidine], the IC50 in [1] (setting [14]) is below 1000 nM.

Take `CNc1nc(Nc2cnc(C#N)c(O[C@@H]3CCCNC3)c2)ncc1C(F)(F)F` [Compound 47, (R)—N^4-methyl-5-trifluoromethyl-N^2-(2-cyano-3-(piperidin-3-oxy)pyridin-5-yl)-2,4-diaminopyrimidine]: in assay [1] (setting [14]), the IC50 is below 1000 nM.
